Like-named read-outs stand apart in the source and are kept apart here.
Experiments:
[1] = tested on: As3; experiment: microplate specificity test with on- and off-target heavy metals (fluorescence); type: cell-based, E. coli; conditions: on-target = 1, no-toxin control = 0; As 1.3, Cd 0.44, Cr(VI) 2, Cu 20, Pb 1, Hg 0.1, Co 20, Fe 500, Ni 1.7, Zn 7.6 μM
Source text: (§1) Each column represents the fluorescence response of a strain to the on-target metal (normalized to “1”) and all off-target metals, where “0” represents the unchanged response for the no-toxin control.
(§2) Although the ability to sense cobalt, iron, nickel, and zinc is of secondary importance, these heavy metals were included as potential off-target inducers because they may be present in the natural water supply under test. […] This combinatorial logic was implemented in algorithms.

[2] = tested on: Cd1; experiment: as above; type: cell-based, E. coli; conditions: on-target = 1, no-toxin control = 0; As 1.3, Cd 0.44, Cr(VI) 2, Cu 20, Pb 1, Hg 0.1, Co 20, Fe 500, Ni 1.7, Zn 7.6 μM
Source text: as §1, §2

[3] = tested on: Cr5; experiment: as above; type: cell-based, E. coli; conditions: on-target = 1, no-toxin control = 0, As 1.3, Cd 0.44, Cr(VI) 2, Cu 20, Pb 1, Hg 0.1, Co 20, Fe 500, Ni 1.7, Zn 7.6 μM
Source text: as §1, §2

[4] = tested on: Cu1; experiment: as above; type: cell-based, E. coli; conditions: on-target = 1, no-toxin control = 0; As 1.3, Cd 0.44, Cr(VI) 2, Cu 20, Pb 1, Hg 0.1, Co 20, Fe 500, Ni 1.7, Zn 7.6 μM
Source text: as §1, §2

[5] = tested on: Pb2; experiment: as above; type: cell-based, E. coli; conditions: on-target = 1, no-toxin control = 0; As 1.3, Cd 0.44, Cr(VI) 2, Cu 20, Pb 1, Hg 0.1, Co 20, Fe 500, Ni 1.7, Zn 7.6 μM
Source text: as §1, §2

[6] = tested on: E. coli MG1655; type: cell-based; conditions: for Number DE Genes: false discovery rate below 1%
Source text: RNA-Seq results for promoter activation in E. coli MG1655 in response to single and multiple toxin exposures at low and high concentrations: Our analysis of the sequencing data from RNA-Seq experiments to determine candidate genes that are induced upon toxin exposure consisted of three main tasks: sequence alignment, quantification of gene expression, and identification of differentially expressed genes. Sequence alignment: Reads were aligned to the reference E. coli K-12 substr. MG1655 genome using a tolerance of at most two mismatches per alignment to protect against sequencing errors. The alignment was performed using Bowtie software, 5 which is known to be very efficient in aligning reads to a reference genome. Without being limiting, Bowtie software 5 can be used for the alignment. Those skilled in the art will appreciate that there are many such software programs for performing alignments.
Quantification of gene expression: The expression level of each gene was determined as a function of the number of aligned reads mapping to the gene. […] Additionally, we implemented our own algorithms for sequence alignment and quantification of gene expression in order to crosscheck all results.
Identification of differentially expressed genes: Finally, a set of statistical and information theory algorithms were applied in order to extract not only differentially expressed (DE) genes for each toxin with respect to the control samples (pure water) but also toxin-specific genes. DESeq is a standard tool for identifying DE genes that allowed us to select sensitive genes with differential expression between the control samples (pure water) and the cells exposed to toxin. It assumes that the number of counts for each gene across experimental replicates follows a negative binomial distribution (8, 9). We considered genes with a False Discovery Rate (FDR) lower than 1% as DE in order to ensure statistically robust DE genes. […] Additionally, genes with the largest number of counts and expression levels are preferable in order to maximize the signal-to-noise ratio. When it is not possible to find toxin-specific genes, the next generation of good candidates is formed by those genes satisfying the above properties for a small subset of toxins (multiple-toxin response). It is desirable to have single-toxin-specific genes for several of the toxins in the combination in order to determine toxin-specific multi-gene-responses by means of logical operations. […] Therefore, we have developed information theoretic measures to improve the toxin separability. The core idea of the approach is that low entropies (or highly informative genes) correspond to toxin-specific genes, while large entropies (low information) are associated with scenarios in which DE fold-changes across different toxins are similar and should be discarded.
(§3) Milestone 2.1: Expose target cells to toxins of interest over four orders of magnitude of concentration and extract RNA: Three strains of bacteria were exposed to relevant levels of all toxins and extracted RNA. The toxin exposure protocol involves first growing a culture of bacterial cells to mid-log phase (OD≤0.2). […] Finally, cellular RNA was stabilized using Qiagen RNA Protect reagent, the cells were centrifuged, and the pellet was frozen at −80° C. To investigate the cellular RNA response to toxin insult, we exposed E. coli MG1655, E. coli LABEC01, and B. subtilis 168 cells to the toxins and concentrations shown in Table 7 and extracted RNA.
Milestone 2.5: Prepare isolated RNA for Illumina sequencing using vendor provided reagents and carry out sequencing: We have prepared libraries and carried out sequencing for all toxins of interest.

[7] = tested on: E. coli MG1655/Pb7; experiment: 18-strain chip induction; type: cell-based
Source text: (§4) In an embodiment herein, the toxin response data across 18 unique sensing strains were also collected using a new chip design that houses 16 E. coli strains and 2 B. subtilis strains. The B. subtilis NCIB 3610/Amm3 construct is a “lights-off” sensor, meaning that GFP production drops when ammonium is introduced, following a slight increase due to faster growth on this preferred nitrogen source. […] By combining these sensor responses, we can identify cobalt by the unique response of Pb7 alone and lead by the unique combination of Zn6, Pb7, and Pb8 responses.

[8] = tested on: E. coli MG1655 strains Co2-Co4 and Co6-Co8; experiment: plate reader validation of cobalt-sensing promoters (GFP fluorescence); type: cell-based; conditions: microplate wells, various concentrations of cobalt
[9] = tested on: GFP sensor strains; experiment: SVM classification of GFP sensor responses (toxin / no toxin); type: cell-based; conditions: from classification accuracy and ROC curves
Source text: Computational models to determine the threshold of detection for specific sensors based on models of experimental GFP responses. We used machine learning techniques to determine the relationships between the GFP output signal and the presence of a toxin. We have created a database containing the collected sensor response data. We have quantified the GFP threshold of detection for each sensor construct. We have constructed Receiver Operating Characteristic (ROC) curves for each sensor to achieve robust sensing. We constructed machine learning models capable of inferring the relationships between the GFP sensor responses and the presence or absence of a toxin at a given concentration. The algorithm learns these relationships from a set of training samples (GFP sensor responses) defined by the set of experimental conditions from which they were generated. The aim of the algorithm is to provide a general method capable of determining the experimental conditions associated with GFP sensor responses through the use of historical data. Specifically, we have built classification models based on Support Vector Machines (SVMs), which is one of the most popular classifiers due to its excellent performance in many contexts and its solid mathematical basis (1). For each toxin and concentration, we solved a binary classification problem in which the positive class represents the presence of the toxin in water and the negative class is associated with clean environments. Patterns were constructed with features containing GFP sensor responses at various timestamps to capture the temporal dynamics of the GFP signal. The optimal meta-parameters of the SVM classifier were determined by applying a 5-crossvalidation during the training phase (2). In order to have a reliable estimate of the performance of the model when deployed in real environments, we measured its performance over a set of samples (test patterns) not seen during the training phase. The SVM's performance was determined by the percentage of test samples correctly labeled as toxin/no toxin (classification accuracy). 80% of samples were used for training the SVM models and the remaining 20% of samples was used to evaluate their effectiveness. We generated 20 random training/test partitions to have an estimate of performance independent of the data partition.
Specifically, we have built classification models based on Support Vector Machines (SVMs), which is one of the most popular classifiers due to its excellent performance in many contexts and its solid mathematical basis. For each toxin and concentration, we solved a binary classification problem in which the positive class represents the presence of the toxin in water and the negative class is associated with clean environments. Patterns were constructed with features containing GFP sensor responses at various timestamps to capture the temporal dynamics of the GFP signal. The optimal meta-parameters of the SVM classifier were determined by applying a 5-crossvalidation during the training phase.
In order to have a reliable estimate of the performance of the model when deployed in real environments, we measured its performance over a set of samples (test patterns) not seen during the training phase. The SVM's performance was determined by the percentage of test samples correctly labeled as toxin/no toxin (classification accuracy). 80% of samples were used for training the SVM models and the remaining 20% of samples was used to evaluate their effectiveness. We generated 20 random training/test partitions based on data collected in single-strain chips (no crosstalk data) to have an estimate of performance.

[10] = tested on: cellular esterases; experiment: inhibition of cellular esterase activity (CFDA cleavage) in gill chip; type: cell-based, S. cerevisiae; conditions: 0.725 g/l malathion; two sequential exposures; recovers subsequently
Procedure: Additional constructs based on this promoter were generated while collecting on-chip response data for all other sensing strains using the sensor prototypes was performed. […] S. cerevisiae was loaded into a gill chip and CFDA (carboxyfluorescein diacetate) was added to the growth medium. […] Because CFDA breaks down in the medium over time thereby increasing the background signal, fresh medium+CFDA was introduced at 1,500 and 2,000 min. This explains the drift in baseline GFP during this period, which can be eliminated in subsequent experiments by mixing dye and medium on-chip.

[11] = tested on: Mall construct; experiment: malathion construct loaded into the sensor device; type: cell-based, E. coli; conditions: prototype sensor
[12] = tested on: Hg3; experiment: microplate specificity test with on- and off-target heavy metals (fluorescence); type: cell-based, E. coli; conditions: on-target = 1, no-toxin control = 0, As 1.3, Cd 0.44, Cr(VI) 2, Cu 20, Pb 1, Hg 0.1, Co 20, Fe 500, Ni 1.7, Zn 7.6 μM
Source text: as §1, §2

[13] = tested on: B. subtilis 168; experiment: RNA-Seq after toxin exposure; type: cell-based
Procedure: as §3
We used RNA-Seq to verify the nasB promoter in B. subtilis 168 as a sensitive and specific promoter for the last remaining toxin, ammonium (see FIG. 2). […] This is desirable because, unlike the other water toxins of interest, ammonium is expected to increase the growth rate of biosensor cells. In this situation, a “lights-on” sensor could be triggered by any substance that increases the growth rate and resulting GFP production ability of cells, whereas a “lights-off” sensor remains immune to this effect.

[14] = tested on: B. subtilis NCIB 3610/Amm3; experiment: 18-strain chip induction; type: cell-based; conditions: 5 ppm NH4-N, GFP production drops
Source text: as §4

Compound: [Co] [Cobalt]
- fluorescence response of strain As3 (on-target arsenic) [1]: 0.30
- fluorescence response of strain Cd1 (on-target cadmium) [2]: 0.67
- fluorescence response of strain Cr5 (on-target chromium(VI)) [3]: −0.11
- fluorescence response of strain Cu1 (on-target copper) [4]: −0.01
- fluorescence response of strain Pb2 (on-target lead) [5]: 0.80
- response of the dadA promoter ([6]; RNA-Seq mean fold change): specific to cobalt alone
- response of the hmp promoter ([6]; RNA-Seq mean fold change): specific to cobalt alone
- response of the ilvB promoter ([6]; RNA-Seq mean fold change): specific to cobalt alone
- response of the lipA promoter ([6]; RNA-Seq mean fold change): specific to cobalt alone
- response of the mmuP promoter ([6]; RNA-Seq mean fold change): specific to cobalt alone
- response of the soxR promoter ([6]; RNA-Seq mean fold change): specific to cobalt alone
- response of the tehA promoter ([6]; RNA-Seq mean fold change): specific to cobalt alone
- response of the ygbA promoter ([6]; RNA-Seq mean fold change): specific to cobalt alone
- response of the yjbJ promoter ([6]; RNA-Seq mean fold change): specific to cobalt alone
- response of the yqfA promoter ([6]; RNA-Seq mean fold change): specific to cobalt alone
- Number DE Genes ([6]; high concentration): 1274
- Number DE Genes ([6]; low concentration): 609
- GFP response of strain Pb7 [7]: responds sensitively
- GFP response to cobalt in the growth medium [8]: significantly respond

Compound: CCOC(=O)CC(SP(=S)(OC)OC)C(=O)OCC (stereo not shown) [Malathion, malathion]
- response of the nemR promoter ([6]; RNA-Seq mean fold change): responds to high concentrations
- Number DE Genes ([6]; high concentration): 41
- Number DE Genes ([6]; low concentration): 370
- threshold of detection [9]: 72.5 mg/L
- cell fluorescence (CFDA cleavage by cellular esterases) [10]: significantly drops
- response of Mall construct in sensor device [11]: did not produce a discernable response

Compound: [Fe] [Iron]
- fluorescence response of strain As3 (on-target arsenic) [1]: −0.06
- fluorescence response of strain Cd1 (on-target cadmium) [2]: −0.31
- fluorescence response of strain Cr5 (on-target chromium(VI)) [3]: 0.86
- fluorescence response of strain Cr5 (on-target chromium(VI)) ([3]; listed as iron): sensitive
- fluorescence response of strain Cu1 (on-target copper) [4]: 0.17
- fluorescence response of strain Hg3 (on-target mercury) [12]: −0.38
- fluorescence response of strain Pb2 (on-target lead) [5]: 0.96
- Number DE Genes ([6]; high concentration): 70
- Number DE Genes ([6]; low concentration): 32

Compound: [Ni] [Nickel]
- fluorescence response of strain As3 (on-target arsenic) [1]: −0.08
- fluorescence response of strain Cd1 (on-target cadmium) [2]: −0.08
- fluorescence response of strain Cr5 (on-target chromium(VI)) [3]: −0.35
- fluorescence response of strain Cu1 (on-target copper) [4]: −0.05
- fluorescence response of strain Pb2 (on-target lead) [5]: 0.16
- Number DE Genes ([6]; high concentration): 95
- Number DE Genes ([6]; low concentration): 43

Compound: Ammonium
- response of the nasB promoter [13]: sensitive and specifically downregulated
- threshold of detection [9]: one
- GFP response of Amm3 strain (lights-off sensor) [14]: respond sensitively

Compound: [Zn] [Zinc]
- fluorescence response of strain As3 (on-target arsenic) [1]: −0.14
- fluorescence response of strain Cd1 (on-target cadmium) [2]: −0.09
- fluorescence response of strain Cr5 (on-target chromium(VI)) [3]: 0.35
- fluorescence response of strain Cu1 (on-target copper) [4]: −0.08
- fluorescence response of strain Hg3 (on-target mercury) [12]: 0.78
- fluorescence response of strain Hg3 (on-target mercury) ([12]; listed as zinc): sensitive
- fluorescence response of strain Pb2 (on-target lead) [5]: 1.06
- response of the mntH promoter ([6]; RNA-Seq mean fold change): high concentrations of zinc alone
- response of the shiA promoter ([6]; RNA-Seq mean fold change): high concentrations of zinc alone
- response of the yjjZ promoter ([6]; RNA-Seq mean fold change): responds monotonically to increasing concentrations
- response of the zntA promoter ([6]; RNA-Seq mean fold change): shows sensitivity to low and high concentrations
- response of the zraP promoter ([6]; RNA-Seq mean fold change): responds specifically and monotonically to increasing concentrations
- Number DE Genes ([6]; high concentration): 596
- Number DE Genes ([6]; low concentration): 24

— US20220057378A1, “MICROBIAL MICROFLUIDIC BIOSENSOR” (priority 2015, published 2022)
